For experiment [1], the system named is PC-3 cells. In words: MTT cell viability assay, PC-3 cells in 10% FBS medium. The experiment is classed as cell-based, human. Particulars: RPMI 1640 with 10% FBS, means ± S.D. (n = 6). The protocol: PC-3 (p53−/−) human androgen-nonresponsive prostate cancer cells were purchased from the American Type Tissue Collection (Manassas, Va.). Cells were cultured in RPMI 1640 medium (Gibco, Grand Island, N.Y.) supplemented with 10% fetal bovine serum (FBS; Gibco) at 37° C. in a humidified incubator containing 5% CO2.
(§1) Effect of the test agent on cell viability was assessed by the MTT {[3-(4,5-dimethylthiazol-2-yl)-2,5-diphenyl-2H-tetrazolium bromide]} assay in 96-well, flat-bottomed plates, in which 8,000 PC-3 or DU-145 cells/well were seeded. Cells were exposed to the test agent at the indicated concentrations, in six replicates, in 10% FBS-supplemented-RPMI-1640 medium at 37° C. in 5% CO2 for 48 hr. The medium was removed and replaced by 150 μL of 0.5 mg/mL of MTT in RPMI-1640 medium, and cells were incubated in the CO2 incubator at 37° C. for 2 h. Supernatants were removed from the wells, and the reduced MTT dye was solubilized with 200 μL/well DMSO. Absorbance was determined on a plate reader at 570 nm.
All compounds were evaluated for their ability to induce apoptotic death in human androgen-independent PC-3 prostate cancer in RPMI 1640 medium containing 10% fetal bovine serum (FBS). For representative compounds tested in DU-145 and LNCaP prostate cancer cells, the IC50 values for inhibiting cell proliferation were similar in these three cell lines irrespective of differences in androgen sensitivity, PTEN mutation, the functional status of p53 and Rb, and other biomarkers.

The subject of experiment [2] is PC-3 cells. Description: Cell viability / apoptotic death of PC-3 cells in 1% FBS-supplemented RPMI 1640 medium. The format is cell-based, human. The following applies: Homo sapiens, 1% FBS-supplemented medium, 48 h, read-out: IC50.
From the text: (§2) (A) Left panel, Time- and dose-dependent effect of doxazosin on the cell viability of PC-3 cells in 1% FBS-supplemented RPMI 1640 medium. Values obtained from six replicates were plotted at each time point at the indicated concentrations of doxazosin. Right panel, induction of poly(ADP-ribose) polymerase (PARP) cleavage by doxazosin at the indicated concentrations after 48-h treatment. PARP proteolysis to the apoptosis-specific 85-kd fragment was monitored by Western blotting. Although there was no substantial accumulation of the 85-kd fragment, significant decrease in the level of native protein was noted. (B) Dose- and time-dependent (upper and lower panels, respectively) effects of doxazosin on Akt phosphorylation. (C) dose-dependent effect of doxazosin on ERK phosphorylation. PC-3 cells were treated with doxazosin at the indicated concentrations for 24 h or at 25 μM for the indicated times and lysed, and proteins in the resulting supernatants were resolved on SDS-PAGE and subjected to Western blot analysis. The phosphorylation status of Akt and ERKs was determined by immunoblotting with the respective phospho-specific antibodies. Unphosphorylated Akt and ERKs, as immunostained by anti-Akt and anti-ERK antibodies, were used as internal standards for the comparison of phospho-Akt and phospho-ERK levels among samples of different preparations. The blots are representative of three independent experiments.
(§3) (B) Western blot analysis of […] proteolysis and Akt dephosphorylation in PC-3 cells treated with the indicated concentrations of 33 for 48 h. (C) Effects of compound 44 on Akt phosphorylation in PC-3 cells treated with the indicated concentrations for 48 h.
as §1
Doxazosin induced apoptosis, in part, by facilitating Akt dephosphorylation. […] The potency of doxazosin in inducing apoptosis, however, was moderate.

In experiment [3] the test system is Akt. In words: Western blot analysis of Akt phosphorylation in PC-3 cells. The experiment is classed as cell-based, human. Particulars: for effect on Akt phosphorylation: Western blot.
From the text: as §2, §3
PC-3 cells (1.5×106) treated with the test agent at the indicated concentrations in RPMI 1640 medium for 24 h were collected and sonicated. Protein concentrations of the lysates were determined by using a Bradford protein assay kit (Bio-Rad, Hercules, Calif.); equivalent amounts of proteins from each lysate were resolved in 10% SDS-polyacrylamide gel and then transferred onto Immobilon-nitrocellulose membranes (Millipore, Bellerica, MA) in a semidry transfer cell. The transblotted membrane was washed twice with Tris-buffered saline (TBS) containing 0.1% Tween 20 (TBST). After blocking with TBST containing 5% nonfat milk for 40 min, the membrane was incubated with the primary antibody (1:1000 dilution) in TBST-1% nonfat milk at 4° C. overnight. After treatment with the primary antibody, the membrane was washed three times with TBST for a total of 15 min, followed by goat anti-rabbit or anti-mouse IgG-horseradish peroxidase conjugates (diluted 1:3000) for 1 h at room temperature and wash three times with TBST for a total of 1 h. The immunoblots were visualized by enhanced chemiluminescence.

The test system of experiment [4] is sixty human tumor cells lines. Description: NCI Developmental Therapeutic Program screening against sixty human tumor cell lines. The experiment is classed as cell-based. Particulars: for GI50: Homo sapiens, mean among sixty cell lines, read-out: mean GI50 (concentration resulting in 50% growth inhibition); for sensitivity of all tested cell lines to growth inhibitory effects: sixty cell lines. From the text: (§4) Further structural improvement was accomplished by replacing the methoxy side chains on the quinazoline ring with propoxy functions. Both 33 and 44 were effective in suppressing the proliferation of different prostate cancer cell lines at low μM levels. In addition, both agents were submitted to the Developmental Therapeutic Program (DTP) at the National Cancer Institute (NCI) for screening against sixty human tumor cells lines, representing leukemia, melanoma, and cancers of lung, colon, brain, ovary, breast, prostate, and kidney.

In experiment [5] the test system is different prostate cancer cell lines. Description: Proliferation of different prostate cancer cell lines. The format is cell-based. The following applies: at low μM levels.
From the text: as §4

On to `COc1cc2nc(N3CCN(S(=O)(=O)c4cc(C(=O)O)c(Cl)cc4F)CC3)nc(N)c2cc1OC` [Compound 28, 5-[4-(4-Amino-6,7-dimethoxy-quinazolin-2-yl)-piperazine-1-sulfonyl]-2-chloro-4-fluoro-benzoic acid], for which it took 56 ± 4 µM to reach half-maximal inhibition in experiment [1] (Homo sapiens, PC-3, 48 h) (IC50).

Take `COc1cc2nc(N3CCN(S(=O)(=O)c4cc(C(=O)O)c(Cl)cc4Cl)CC3)nc(N)c2cc1OC` [Compound 29, 5-[4-(4-Amino-6,7-dimethoxy-quinazolin-2-yl)-piperazine-1-sulfonyl]-2,4-dichloro-benzoic acid]: it took 52 ± 6 µM to reach half-maximal inhibition in experiment [1] (Homo sapiens, PC-3, 48 h) (IC50).

In experiment [1] (Homo sapiens, PC-3, 48 h), `COc1cc2nc(N3CCN(S(=O)(=O)c4cccc5ccccc45)CC3)nc(N)c2cc1OC` [Compound 30, 6,7-Dimethoxy-2-[4-(naphthalene-1-sulfonyl)-piperazin-1-yl]-quinazolin-4-yl-amine] gave an IC50 of 14 ± 2 µM.

For `COc1cc2nc(N3CCN(S(=O)(=O)c4ccc5ccccc5c4)CC3)nc(N)c2cc1OC` [Compound 31, 6,7-Dimethoxy-2-[4-(naphthalene-2-sulfonyl)-piperazin-1-yl]-quinazolin-4-yl-amino], the IC50 in experiment [1] (Homo sapiens, PC-3, 48 h) came out at 15 ± 2 µM.

`COc1cc2nc(N3CCN(S(=O)(=O)c4cccc5c(N(C)C)cccc45)CC3)nc(N)c2cc1OC` [Compound 32, 2-[4-(5-Dimethylamino-naphthalene-1-sulfonyl)-piperazin-1-yl]-6,7-dimethoxy-quinazolin-4-ylamine] gave an IC50 in experiment [1] (Homo sapiens, PC-3, 48 h) of 29 ± 4 µM.

Consider `COc1cc2nc(N3CCN(S(=O)(=O)c4ccc(-c5ccccc5)cc4)CC3)nc(N)c2cc1OC` [Compound 33, 2-[4-(Biphenyl-4-sulfonyl)-piperazin-1-yl]-6,7-dimethoxy-quinazolin-4-ylamine], for which the IC50 in experiment [1] (Homo sapiens, PC-3, 48 h) was 4 to 5 µM; in experiment [1] (48 h), 4.2 ± 0.8 µM; in experiment [2] it was approximately 2.5 µM. For the same compound, the “effect on Akt phosphorylation” value in experiment [3] was “inhibition of Akt activation”. Further, in experiment [4], the GI50 came out at 2.2 µM. Further, in experiment [4], the “sensitivity of all tested cell lines to growth inhibitory effects” value is listed as “high degree of sensitivity”. Besides, the suppressing the proliferation result in experiment [5] was “effective”.

The compound `COc1cc2nc(N3CCN(S(=O)(=O)c4c(C(C)C)cc(C(C)C)cc4C(C)C)CC3)nc(N)c2cc1OC` [Compound 34, 6,7-Dimethoxy-2-[4-(2,4,6-triisopropyl-benzonesulfonyl)-piperazin-1-yl]-quinazolin-4-yl-amine] yielded an IC50 in experiment [1] (48 h) of 24 ± 3 µM.

As for `COc1cc2nc(N3CCN(S(=O)(=O)c4ccc(-c5cc6ccccc6c6ccccc56)cc4)CC3)nc(N)c2cc1OC` [Compound 35, 6,7-Dimethoxy-2-[4-(4-phenanthren-9-yl-benzenesulfonyl)-piperazin-1-yl]-quinazolin-4-ylamine], the IC50 in experiment [1] (Homo sapiens, PC-3, 48 h) was 4 to 5 µM; in experiment [1] (48 h), 5.2 ± 0.9 µM.

In experiment [1] (Homo sapiens, PC-3, 48 h), `COc1cc2nc(N3CCN(S(=O)(=O)c4ccc(-c5ccc(C)cc5)cc4)CC3)nc(N)c2cc1OC` [Compound 36, 6,7-Dimethoxy-2-[4-(4′-methyl-biphenyl-4-sulfonyl)-piperazin-1-yl]-quinazolin-4-yl-amine] registered an IC50 of 3.4 ± 0.4 µM.

Regarding `COc1cc2nc(N3CCN(S(=O)(=O)c4ccc(-c5ccc(C(F)(F)F)cc5)cc4)CC3)nc(N)c2cc1OC` [Compound 37, 6,7-Dimethoxy-2-[4-(4′-trifluoromethyl-biphenyl-4-sulfonyl)-piperazin-1-yl]-quinazolin-4-yl-amine], half-maximal inhibition in experiment [1] (Homo sapiens, PC-3, 48 h) (IC50) required 3.3 ± 0.3 µM.

As to `COc1cc2nc(N3CCN(S(=O)(=O)c4ccc(-c5ccc(S(C)(=O)=O)cc5)cc4)CC3)nc(N)c2cc1OC` [Compound 38, 2-[4-(4′-Methanesulfonyl-biphenyl-4-sulfonyl)-piperazin-1-yl]-6,7-dimethoxy-quinazolin-4-ylamine], the IC50 in experiment [1] (Homo sapiens, PC-3, 48 h) was determined as 7.2 ± 0.5 µM.

`CCCCc1ccc(-c2ccc(S(=O)(=O)N3CCN(c4nc(N)c5cc(OC)c(OC)cc5n4)CC3)cc2)cc1` [Compound 39, 2-[4-(4′-Butyl-biphenyl-4-sulfonyl)-piperazin-1-yl]-6,7-dimethoxy-quinazolin-4-yl-amine] yielded an IC50 in experiment [1] (Homo sapiens, PC-3, 48 h) of 3.4 ± 0.2 µM.

On to `COc1cc2nc(N3CCN(S(=O)(=O)c4ccc(-c5ccc(C(C)(C)C)cc5)cc4)CC3)nc(N)c2cc1OC` [Compound 40, 2-[4-(4′-tert-Butyl-biphenyl-4-sulfonyl)-piperazin-1-yl]-6,7-dimethoxy-quinazolin-4-yl-amine], for which, in experiment [1] (Homo sapiens, PC-3, 48 h), the IC50 came to 10 ± 2 µM.

As for `C=CCOc1cc2nc(N3CCN(S(=O)(=O)c4ccc(-c5ccccc5)cc4)CC3)nc(N)c2cc1OCC=C` [Compound 43, 6,7-Bis-allyloxy-2-[4-(biphenyl-4-sulfonyl)-piperazin-1-yl]-quinazolin-4-ylamine], half-maximal inhibition in experiment [1] (Homo sapiens, PC-3, 48 h) (IC50) was put at 3.3 ± 0.4 µM.

As to `CCCOc1cc2nc(N3CCN(S(=O)(=O)c4ccc(-c5ccccc5)cc4)CC3)nc(N)c2cc1OCCC` [Compound 44, 2-[4-(Biphenyl-4-sulfonyl)-piperazin-1-yl]-6,7-dipropoxy-quinazolin-4-yl-amine], half-maximal inhibition in experiment [1] (Homo sapiens, PC-3, 48 h) (IC50) was put at 2.5 µM. The “concentration at which dephosphorylation of phospho-Akt was evident (as low as)” value in experiment [3] (48 h, Western blot (FIG. 6C)) worked out at 1 µM. The “effect on Akt phosphorylation” value in experiment [3] was “dephosphorylation of phospho-Akt in a dose-dependent manner”. For the same compound, in experiment [4], the GI50 came to 1.5 µM and the “sensitivity of all tested cell lines to growth inhibitory effects” value is “high degree of sensitivity”. Further, the suppressing the proliferation result in experiment [5] is “effective”.

In turn, `CC(C)Oc1cc2nc(N3CCN(S(=O)(=O)c4ccc(-c5ccccc5)cc4)CC3)nc(N)c2cc1OC(C)C` [Compound 45, 2-[4-(Biphenyl-4-sulfonyl)-piperazin-1-yl]-6,7-diisopropoxy-quinazolin-4-yl-amine] gave an IC50 in experiment [1] (Homo sapiens, PC-3, 48 h) of 24 µM.

Compound `CCCCOc1cc2nc(N3CCN(S(=O)(=O)c4ccc(-c5ccccc5)cc4)CC3)nc(N)c2cc1OCCCC` [Compound 46, 2-[4-(Biphenyl-4-sulfonyl)-piperazin-1-yl]-6,7-dibutoxy-quinazolin-4-ylamine] registered an IC50 in experiment [1] (Homo sapiens, PC-3, 48 h) of 3.5 ± 0.4 µM.

Source of the values: patent US8377948B2, “Antitumor agents and methods of their use” (The Ohio State University Research Foundation, priority 2004, dated 2013).
